Data from ChEMBL document CHEMBL1137036, “Synthesis and evaluation of 2-amino-8-alkoxy quinolines as MCHr1 antagonists. Part 3” (Bioorg Med Chem Lett, 2004).

Assays:
[1] = Maximum concentration in brain was determined at the peroral dose of 10 mg/kg in diet-induced obese (DIO) mice; unit may be ng/mL or ng/g; type: ADME, organism-based; parameters: dose 10 mg/kg, route oral; conditions: mouse, po
[2] = Half life in brain was determined at the peroral dose of 10 mg/kg in diet-induced obese (DIO) mice; type: ADME, organism-based; parameters: dose 10 mg/kg, route oral; conditions: mouse, po
[3] = Maximum concentration in plasma was determined at the peroral dose of 10 mg/kg in diet-induced obese (DIO) mice; unit may be ng/mL or ng/g; type: ADME, organism-based; parameters: dose 10 mg/kg, route oral; conditions: mouse, po
[4] = biological target: T1, Melanin-concentrating hormone receptor 1 (Homo sapiens, UniProt Q99705); experiment: Concentration required to inhibit 50% of melanin-concentrating hormone induced [Ca2+] flux in IMR-32 cells measured by using a fluorometric imaging plate reader; type: functional, cell-based
T1 sequence (Q99705 whole entry): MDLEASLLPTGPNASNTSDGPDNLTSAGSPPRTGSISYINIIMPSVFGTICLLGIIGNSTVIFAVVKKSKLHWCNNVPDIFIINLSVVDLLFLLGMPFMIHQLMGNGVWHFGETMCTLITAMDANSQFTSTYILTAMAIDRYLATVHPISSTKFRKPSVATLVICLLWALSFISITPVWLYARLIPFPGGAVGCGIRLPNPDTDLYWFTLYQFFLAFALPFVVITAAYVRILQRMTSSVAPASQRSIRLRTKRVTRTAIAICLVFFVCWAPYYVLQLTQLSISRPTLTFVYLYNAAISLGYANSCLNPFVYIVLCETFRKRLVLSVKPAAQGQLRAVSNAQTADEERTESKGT

[5] = biological target: T1, Melanin-concentrating hormone receptor 1; experiment: Concentration required to inhibit binding of [125I]MCH radioligand to human Melanin-concentrating hormone receptor 1 in IMR-32 I3.4.2 cell membranes
[6] = Half life in plasma was determined at the peroral dose of 10 mg/kg in diet-induced obese (DIO) mice; type: ADME, organism-based; parameters: dose 10 mg/kg, route oral; conditions: mouse, po
[7] = Area under curve in plasma was determined at the peroral dose of 10 mg/kg in diet-induced obese (DIO) mice; unit may be ng.h/mL or ng.h/g; type: ADME, organism-based; parameters: dose 10 mg/kg, route oral; conditions: mouse, in vivo, po
[8] = Area under curve in brain was determined at the peroral dose of 10 mg/kg in diet-induced obese (DIO) mice; unit may be ng.h/mL or ng.h/g; type: ADME, organism-based; parameters: dose 10 mg/kg, route oral; conditions: mouse, in vivo, po
[9] = Brain/plasma ratio was determined in diet-induced obese (DIO) mice; type: ADME, cell-free; conditions: mouse, brain and plasma
[10] = Area under curve in brain was determined in diet-induced obese (DIO) mice; type: ADME, tissue-based; conditions: mouse, in vivo

Structure (SMILES)	IC50 [4] [nM]	IC50 [5] [nM]	further results
Nc1ccc2cccc(OC3CCN(c4ccc5c(c4)OC(F)(F)O5)C3)c2n1 (stereo not drawn)	22.4	0.9	Cmax [1]: 2860 ng/mL; half-life [2]: 5.1 h; Cmax [3]: 331 ng/mL; half-life [6]: 4.6 h; AUC [7]: 801 ng·h/mL; AUC [8]: 17700 ng·h/mL
Nc1ccc2cccc(OCCCNC(=O)c3cccc(Cl)c3)c2n1	7		Kp [9]: 0.03; AUC [10]: 11 ng·h/mL
CC(=O)Nc1ccc(CN2CC[C@H](Oc3cccc4ccc(N)nc34)C2)cc1	1260	90	
CC(C)Cc1ccc(N2CCC(Oc3cccc4ccc(NCC5CC5)nc34)C2)cc1 (stereo not drawn)	> 10000	149	
Nc1ccc2cccc(O[C@H]3CCN(C(=O)c4ccc5c(c4)OCO5)C3)c2n1	9140	730	
CC(C)(C)c1ccc(S(=O)(=O)N2CC[C@H](Oc3cccc4ccc(N)nc34)C2)cc1	1140	210	
CCC(c1ccccc1)N1CCC(Oc2cccc3ccc(N)nc23)C1 (stereo not drawn)	224	20.5	
CN(C)c1ccc2cccc(OC3CCN(c4ccc5c(c4)OCO5)C3)c2n1 (stereo not drawn)	> 10000	> 2000	
CC(C)Cc1ccc(N2CCC(Oc3cccc4ccc(NCc5ccc(-c6cccc(C(F)(F)F)c6)o5)nc34)C2)cc1 (stereo not drawn)	41	41	
Nc1ccc2cccc(O[C@@H]3CCN(Cc4ccc5c(c4)OCO5)C3)c2n1	1600	70	
CC(C)Cc1ccc(N2CCC(Oc3cccc4ccc(N)nc34)C2)cc1 (stereo not drawn)	53.3	1.2	
Nc1ccc2cccc(O[C@H]3CCN(Cc4ccc5c(c4)OCO5)C3)c2n1	30	70	Cmax [1]: 183 ng/mL; half-life [2]: 8.3 h; Cmax [3]: 543 ng/mL; half-life [6]: 6.5 h; AUC [7]: 1350 ng·h/mL; AUC [8]: 1710 ng·h/mL
Nc1ccc2cccc(O[C@H]3CCN(Cc4ccccc4)C3)c2n1	1690	120	
CC(C)(C)c1ccc(CN2CC[C@H](Oc3cccc4ccc(N)nc34)C2)cc1	30	1	
Nc1ccc2cccc(OC3CCN(c4ccc5c(c4)OCCO5)C3)c2n1 (stereo not drawn)	51	2.7	
Nc1ccc2cccc(OCCCNCc3ccc(Cl)c(C(F)(F)F)c3)c2n1			Kp [9]: 0.96; AUC [10]: 9520 ng·h/mL
CC(Cc1ccc2c(c1)OCO2)N1CCC(Oc2cccc3ccc(N)nc23)C1 (stereo not drawn)	79.2	2.2	
Nc1ccc2cccc(O[C@@H]3CCN(c4ccc5c(c4)OC(F)(F)O5)C3)c2n1	531	38.6	
CNc1ccc2cccc(OC3CCN(c4ccc5c(c4)OCCO5)C3)c2n1 (stereo not drawn)	244	25.6	
Nc1ccc2cccc(O[C@@H]3CCN(Cc4ccccc4)C3)c2n1	> 10000	580	
